Results reported in patent US9315522B2, “Antibacterial compounds” (JANSSEN SCIENCES IRELAND UC, priority 2012, dated 2016).
In brackets after ≈: the same amount, converted by molar mass. Read-outs that look alike come from different tables or passages of the source.

Key:
[1] = target: T1, S. aureus ATCC 29213 FabI (Staphylococcus aureus, UniProt Q6GI75); experiment: Staphylococcus aureus FabI enzyme inhibition assay; assay type: biochemical; details: read-out: FabI (300.235) IC50 (converted)
T1 sequence (Q6GI75 1-256): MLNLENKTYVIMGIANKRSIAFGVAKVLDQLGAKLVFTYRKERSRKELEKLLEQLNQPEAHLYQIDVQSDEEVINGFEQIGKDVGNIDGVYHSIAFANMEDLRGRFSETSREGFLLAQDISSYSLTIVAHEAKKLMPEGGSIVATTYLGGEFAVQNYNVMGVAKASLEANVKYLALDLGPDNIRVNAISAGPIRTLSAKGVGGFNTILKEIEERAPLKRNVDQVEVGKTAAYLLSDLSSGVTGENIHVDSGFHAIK
Procedure, shortened: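 S. aureus ATCC 29213 FabI (50 μg/ml) with 250 μM crotonoyl-CoA and 625 μM NADH in 100 mM NaADA pH 6.5, inhibitor 50–0.39 μM, 30 min at room temperature. Stopped by Tris pH 9.0 shift; NADH at 340 nm versus no-compound and no-enzyme controls; IC50 in μg/ml.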

[2] = tested on: Staphylococcus aureus ATCC 29213; experiment: Antibacterial susceptibility testing, IC90 determination (STA); assay type: cell-based; details: resazurin; for IC90: Staphylococcus aureus, ATCC29213, Staphylococcus aureus ATCC 29213, broth microdilution, read-out: STA (361.159) IC90
Procedure, shortened: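 S. aureus ATCC 29213 tested by broth microdilution in Mueller-Hinton broth, 5×10^5 CFU/ml, two-fold compound dilutions typically 63 to 0.49 μM, 1.25% DMSO, 16-20 h at 35° C. Growth read fluorometrically with resazurin (ex 540/em 590 nm); IC90 in μg/ml is 90% growth-inhibitory concentration.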

S. aureus = experiment: Antibacterial susceptibility testing, IC90 determination with 10% human serum (STA + 10% HS); assay type: cell-based, Staphylococcus aureus; details: Staphylococcus aureus, human serum at final concentration of 10%, read-out: STA + 10% HS (361.169) IC90
Procedure, shortened: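 Broth microdilution in Mueller-Hinton broth with 10% human serum, 5×10^5 CFU/ml S. aureus, two-fold compound dilutions (typically 63 to 0.49 μM), 1.25% DMSO, 16-20 h at 35° C. Growth read fluorometrically with resazurin (ex 540/em 590 nm); IC90 in μg/ml is the 90% growth-inhibitory concentration.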

[3] = Cytotoxicity MTT assay (HELAM); assay type: cell-based, Human; details: human, HelaM cells, read-out: HELAM (222.125) CC50
Procedure, shortened: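 HelaM cells exposed 72 h at 37° C to serial dilutions, typically 25 to 0.8 μM, in 0.5% DMSO. MTT formazan dissolved in 2-propanol, absorbance at 540 nm minus 690 nm; CC50 is concentration halving viability.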

[4] = Thermodynamic solubility (pH solubility profiling); assay type: physicochemical; details: thermodynamic from solid
Method: The pH solubility profiling was carried out at ambient temperature for a period of 4 days. A saturation solubility study was carried out in order to determine maximum solubility in a particular buffer solution. The compound was added to respective buffer solution until saturation point is reached. This was followed by shaking the flask for 4 days at ambient temperature. After 4 days, the solutions were filtered and injected on UPLC and the concentration was determined using a generic HPLC method.

[5] = In vivo pharmacokinetic and oral bioavailability in mouse; parameters: species or system male Swiss mice; details: for half-life: read-out: Half life (t1/2) (converted)
Method: The in vivo pharmacokinetics and oral bioavailability of the compound of the examples were/are investigated in male Swiss mice (fed) following single intravenous (i.v.) bolus and oral (p.o.) administration. For the i.v. and p.o. solution formulations, the compound was/is dissolved in a 20% HP-β-CD solution. The pH of the formulations was/is around pH 4. All i.v. formulations were isotonic.

[6] = aqueous buffer, Buffer pH 4, ambient temperature
[7] = aqueous buffer, Buffer pH 7.4, ambient temperature
[8] = aqueous with cosolvent or surfactant or cyclodextrin, 10% HP-β-CD buffer pH 4, ambient temperature
[9] = aqueous with cosolvent or surfactant or cyclodextrin, 10% HP-β-CD buffer pH 7.4, ambient temperature
[10] = aqueous with cosolvent or surfactant or cyclodextrin, 20% HP-β-CD buffer pH 4, ambient temperature
[11] = aqueous with cosolvent or surfactant or cyclodextrin, 20% HP-β-CD buffer pH 7.4, ambient temperature
[12] = pH 2, aqueous with cosolvent or surfactant or cyclodextrin, 20% HP-β-CD 0.01N HCl, ambient temperature
[13] = pH 2, simulated gastric fluid, 0.01N HCl, ambient temperature
[14] = male, Swiss, plasma, iv, 2.5 mg/kg, 20% HP-β-cyclodextrin
[15] = male, Swiss, plasma, po, 5 mg/kg, 20% HP-β-cyclodextrin

Row | Structure (SMILES) | IC50 [1] [µM] | IC90 [2] [mg/L] | IC90 (S. aureus) [mg/L] | CC50 at 72 h [3] [mg/L] | melting point [°C] | also measured
1 | O=C1Nc2ncc(/C=C/C(=O)N3CC4C=C(c5nccs5)CC4C3)cc2CN2CCOCC12 (stereo not drawn) [Cpd. No. 74] | 0.992 | < 0.23 | < 0.23 | > 11.2 | > 260 | solubility thermodynamic at 4 days [4, 6]: 0.04 mg/mL (≈ 86.3 µM); solubility thermodynamic at 4 days [4, 7]: 0.03 mg/mL (≈ 64.7 µM); solubility thermodynamic at 4 days [4, 8]: > 1.28 mg/mL; solubility thermodynamic at 4 days [4, 9]: > 1.21 mg/mL; solubility thermodynamic at 4 days [4, 10]: > 2.36 mg/mL; solubility thermodynamic at 4 days [4, 11]: > 1.33 mg/mL; solubility thermodynamic at 4 days [4, 12]: > 2.36 mg/mL; solubility thermodynamic at 4 days [4, 13]: 0.67 mg/mL (≈ 1450 µM)
2 | O=C(Nc1ccc(/C=C/C(=O)N2CC3C=C(c4ccncc4)CC3C2)cn1)c1cccnc1 (stereo not drawn) [compound 9] | – | 0.34 (≈ 0.777 µM) | 0.39 | > 11 | 196 | solubility thermodynamic at 4 days [4, 6]: 0.12 mg/mL (≈ 274 µM); solubility thermodynamic at 4 days [4, 7]: < 0.01 mg/mL; solubility thermodynamic at 4 days [4, 8]: 0.83 mg/mL (≈ 1900 µM); solubility thermodynamic at 4 days [4, 9]: > 1.12 mg/mL; solubility thermodynamic at 4 days [4, 10]: > 5.23 mg/mL; solubility thermodynamic at 4 days [4, 11]: > 4.94 mg/mL; solubility thermodynamic at 4 days [4, 12]: > 4.93 mg/mL; solubility thermodynamic at 4 days [4, 13]: > 1.25 mg/mL
3 | O=C1COc2cc(/C=C/C(=O)N3CC4C=C(c5ccccc5)CC4C3)cnc2N1 (stereo not drawn) [compound 37] | ~1.16 | < 0.19 | 0.25 | > 9.73 | > 260 | Vdz ([5]; i.v., 2.5 mg/kg, 20% HP-β-cyclodextrin): 1.5 L/kg; AUC(0-inf) [5, 14]: 7.89 µg·h/mL; C0 [5, 14]: 3.93 µg/mL; half-life [5, 14]: 3.33 h; clearance ([5]; male, Swiss, plasma, iv, 2.5 mg/kg, 20% HP-β-cyclodextrin, read-out: Plasma clearance Cl (converted)): 0.32 L/h/kg; AUC(0-inf) [5, 15]: 15.6 µg·h/mL; Cmax [5, 15]: 2.33 µg/mL; Tmax [5, 15]: 1 h; half-life [5, 15]: 3.5 h; bioavailability ([5]; male, Swiss, plasma, po, p.o. 5 mg/kg vs i.v. 2.5 mg/kg): 98%
4 | O=C1CNC(=O)c2cc(/C=C/C(=O)N3CC4C=C(c5ccccc5)CC4C3)cnc2N1 (stereo not drawn) [compound 66] | 0.651 | 0.76 (≈ 1.83 µM) | 0.79 | > 10.4 | 226 | –
5 | O=C1Nc2ncc(/C=C/C(=O)N3CC4C=C(c5ccsc5)CC4C3)cc2CN2CCOCC12 (stereo not drawn) [compound 70] | 1.45 | 0.17 (≈ 0.368 µM) | 0.2 | > 11.6 | > 250 | –
6 | CC(=O)N1CCN2Cc3cc(/C=C/C(=O)N4CC5C=C(c6cccs6)CC5C4)cnc3NC(=O)C2C1 (stereo not drawn) [compound 75] | 1.29 | < 0.25 | < 0.25 | > 12.7 | 215 to 230 | –
7 | O=C1Nc2ncc(/C=C/C(=O)N3CC4C=C(c5ccccc5)CC4C3)cc2C(=O)N2CCOCC12 (stereo not drawn) [compound 76] | 1.23 | 0.25 (≈ 0.531 µM) | 0.41 | > 11.8 | 278.12 | –
8 | O=C1Nc2ncc(/C=C/C(=O)N3CC4C=C(c5ccccc5)CC4C3)cc2CN2CCSCC12 (stereo not drawn) [compound 77] | 1.18 | 0.26 (≈ 0.55 µM) | 0.59 | 1.2 (≈ 2.54 µM) | 214 | –
9 | O=C1Nc2ncc(/C=C/C(=O)N3CC4C=C(c5ccccc5)CC4C3)cc2CN2CCOCC12 (stereo not drawn) [compound 78] | 1.07 | – | < 0.22 | > 11.5 | 242 | STA (361.159) IC90 ([2]; Staphylococcus aureus ATCC 29213, broth microdilution): 0.31 mg/L
10 | O=C1Nc2ncc(/C=C/C(=O)N3CC4C=C(c5ccccc5)CC4C3)cc2CN2CCNCC12 (stereo not drawn) [compound 79] | 1.32 | 0.36 (≈ 0.79 µM) | < 0.22 | > 11.4 | 191 to 216 | solubility thermodynamic at 4 days [4, 6]: 0.15 mg/mL (≈ 329 µM); solubility thermodynamic at 4 days [4, 7]: 0.01 mg/mL (≈ 22 µM); solubility thermodynamic at 4 days [4, 8]: > 5.33 mg/mL; solubility thermodynamic at 4 days [4, 9]: > 5.11 mg/mL; solubility thermodynamic at 4 days [4, 10]: > 4.45 mg/mL; solubility thermodynamic at 4 days [4, 11]: > 4.88 mg/mL; solubility thermodynamic at 4 days [4, 12]: > 4.49 mg/mL; solubility thermodynamic at 4 days [4, 13]: > 1.16 mg/mL
11 | O=C1Nc2ncc(/C=C/C(=O)N3CC4C=C(c5ccncc5)CC4C3)cc2CN2CCOCC12 (stereo not drawn) [compound 80] | 0.743 | 0.42 (≈ 0.918 µM) | 0.38 | > 11.5 | 212 | –
12 | CN1CCN2C(=O)c3cc(/C=C/C(=O)N4CC5C=C(c6ccccc6)CC5C4)cnc3NC(=O)C2C1 (stereo not drawn) [compound 82] | 0.993 | 0.45 (≈ 0.931 µM) | 0.43 | > 12.1 | > 270 | –
13 | CC(=O)N1CCN2C(=O)c3cc(/C=C/C(=O)N4CC5C=C(c6ccccc6)CC5C4)cnc3NC(=O)C2C1 (stereo not drawn) [compound 83] | 1.23 | 0.48 (≈ 0.938 µM) | 0.47 | > 12.9 | 262 to 264 | –
14 | Cn1nccc1C1=CC2CN(C(=O)/C=C/c3cnc4c(c3)CN3CCOCC3C(=O)N4)CC2C1 (stereo not drawn) [compound 85] | 0.955 | 1.67 (≈ 3.63 µM) | 1.62 | > 11.6 | 226 | –
15 | O=C1CC2CCCCN2Cc2cc(/C=C/C(=O)N3C[C@@H]4CC(c5ccccc5)=C[C@@H]4C3)cnc2N1 (stereo partly drawn) [compound 90] | 0.832 | < 0.21 | < 0.21 | 4.4 (≈ 9.39 µM) | 214.9 to 232.7 | –
